# Like-named read-outs stand apart in the source and are kept apart here.
# Experiments:
# [1] = test system: IL-13 induced pSTAT6 in lung tissue; experiment: Murine model of IL-13 induced pSTAT6 induction in lung tissue; type: in vivo, mouse; conditions: Balb/c mice, 1 mg/mL, 50 μL oral aspiration; IL-13 challenge 4 hours after compound; lung homogenate
# Method: (§1) Assay 3: Murine (Mouse) Model of IL-13 Induced pSTAT6 Induction in Lung Tissue
# IL-13 binds to cell surface receptors activating members of the Janus family of kinases (JAK) which then phosphorylate STAT6 and subsequently activates further transcription pathways. In the described model, a dose of IL-13 was delivered locally into the lungs of mice to induce the phosphorylation of STAT6 (pSTAT6) which is then measured as the endpoint.
# Activity in the model is evidenced by a decrease in the level of pSTAT6 present in the lungs of treated animals at 5 hours compared to the vehicle treated, IL-13 challenged control animals. The difference between the control animals which were vehicle-treated, IL-13 challenged and the control animals which were vehicle-treated, vehicle challenged dictated the 0% and 100% inhibitory effect, respectively, in any given experiment.
# JAK2 = JAK2 (Homo sapiens (Human), UniProt O60674); experiment: Biochemical JAK kinase assay (LanthaScreen), JAK2; conditions: ATP at Km 3 μM; pIC50 converted with Cheng-Prusoff
# Chain of JAK2 (O60674 whole entry): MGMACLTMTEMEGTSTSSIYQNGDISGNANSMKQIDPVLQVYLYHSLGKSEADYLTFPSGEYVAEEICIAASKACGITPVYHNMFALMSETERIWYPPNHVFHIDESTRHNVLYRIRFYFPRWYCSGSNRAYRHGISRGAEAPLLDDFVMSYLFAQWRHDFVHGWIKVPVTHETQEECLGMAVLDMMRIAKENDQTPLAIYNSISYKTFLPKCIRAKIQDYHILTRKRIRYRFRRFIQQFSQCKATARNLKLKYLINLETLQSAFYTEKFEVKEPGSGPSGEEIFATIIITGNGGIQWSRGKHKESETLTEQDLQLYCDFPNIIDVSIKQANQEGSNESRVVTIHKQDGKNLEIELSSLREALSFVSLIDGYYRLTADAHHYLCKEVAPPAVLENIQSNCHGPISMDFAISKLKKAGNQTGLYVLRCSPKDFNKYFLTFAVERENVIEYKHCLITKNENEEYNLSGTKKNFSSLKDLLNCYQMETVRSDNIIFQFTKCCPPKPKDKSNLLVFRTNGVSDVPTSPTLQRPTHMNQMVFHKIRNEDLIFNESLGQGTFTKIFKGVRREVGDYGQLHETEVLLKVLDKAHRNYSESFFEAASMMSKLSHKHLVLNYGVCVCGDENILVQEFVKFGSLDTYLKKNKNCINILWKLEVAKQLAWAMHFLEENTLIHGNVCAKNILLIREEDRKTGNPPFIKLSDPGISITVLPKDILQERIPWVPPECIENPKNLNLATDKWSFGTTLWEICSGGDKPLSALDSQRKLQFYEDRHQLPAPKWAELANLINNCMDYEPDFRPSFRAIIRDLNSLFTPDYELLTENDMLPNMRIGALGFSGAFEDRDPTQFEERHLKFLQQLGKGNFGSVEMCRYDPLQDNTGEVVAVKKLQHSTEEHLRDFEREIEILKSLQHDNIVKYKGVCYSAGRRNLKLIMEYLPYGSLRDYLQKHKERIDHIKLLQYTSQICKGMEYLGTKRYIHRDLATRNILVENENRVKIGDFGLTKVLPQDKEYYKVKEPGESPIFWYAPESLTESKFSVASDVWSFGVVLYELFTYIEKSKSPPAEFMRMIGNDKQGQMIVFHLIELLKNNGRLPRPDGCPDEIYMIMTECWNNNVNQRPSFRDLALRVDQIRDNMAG
# Method: (§2) Assay 1: Biochemical JAK Kinase Assays
# (§3) A panel of four LanthaScreen JAK biochemical assays (JAK1, 2, 3 and Tyk2) were carried in a common kinase reaction buffer (50 mM HEPES, pH 7.5, 0.01% Brij-35, 10 mM MgCl2, and 1 mM EGTA). Recombinant GST-tagged JAK enzymes and a GFP-tagged STAT1 peptide substrate were obtained from Life Technologies.
# (§4) Serially diluted compounds were pre-incubated with each of the four JAK enzymes and the substrate in white 384-well microplates (Corning) at ambient temperature for 1 h. ATP was subsequently added to initiate the kinase reactions in 10 μL total volume, with 1% DMSO. […] Kinase reactions were allowed to proceed for 1 hour at ambient temperature before a 10 μL preparation of EDTA (10 mM final concentration) and Tb-anti-pSTAT1 (pTyr701) antibody (Life Technologies, 2 nM final concentration) in TR-FRET dilution buffer (Life Technologies) was added. The plates were allowed to incubate at ambient temperature for 1 h before being read on the EnVision reader (Perkin Elmer). Emission ratio signals (520 nm/495 nm) were recorded and utilized to calculate the percent inhibition values based on DMSO and background controls.
# (§5) For dose-response analysis, percent inhibition data were plotted vs. compound concentrations, and IC50 values were determined from a 4-parameter robust fit model with the Prism software (GraphPad Software). Results were expressed as pIC50 (negative logarithm of IC50) and subsequently converted to pKi (negative logarithm of dissociation constant, Ki) using the Cheng-Prusoff equation.
# Lung S9 metabolism = type: in vitro ADME, human
# Method: Assay 5: Lung S9 Metabolism […] Lung S9 fractions from human (lot 1410245) were purchased from XenoTech LLC (Lenexa, Kans.). NADPH (Sigma Aldrich, N1630) and 3-phosphoadenosine 5-phosphosulfate (PAPS) (Sigma Aldrich, A1651) were purchased from Sigma Aldrich (St. Louis, Mo.). Acetonitrile and water were obtained from VWR (Radnor, Pa.) and were of HPLC grade or better. Raloxifene and formic acid was purchased from Sigma Aldrich (St. Louis, Mo.). Lung S9 incubations were performed in a water bath at 37° C. in a 96-well polypropylene plate. […] All samples were centrifuged at 2250 g for 10 minutes at 5° C. Supernatant (50 μL) was taken from the centrifuged samples and diluted into 100 μL HPLC water containing internal standard. […] Mobile Phase A consisted of Water+0.2% formic acid and Mobile Phase B consisted of acetonitrile+0.2% formic acid. Peak integration was accomplished using Gubbs GMSU software (Gubbs Inc., Alpharetta, Ga.). For each sample, peak area ratios were calculated by dividing the analyte peak area by the internal standard peak area. […] Determination of sulfate metabolite formation was made qualitatively by observation of early-eluting peak in the parent ion channel which, based on historical internal data, corresponded to the O-sulfate metabolite of each parent compound.
# JAK3 = JAK3 (Homo sapiens (Human), UniProt P52333); type: biochemical; conditions: ATP at Km 1.6 μM; pIC50 converted with Cheng-Prusoff
# Chain of JAK3 (P52333 whole entry): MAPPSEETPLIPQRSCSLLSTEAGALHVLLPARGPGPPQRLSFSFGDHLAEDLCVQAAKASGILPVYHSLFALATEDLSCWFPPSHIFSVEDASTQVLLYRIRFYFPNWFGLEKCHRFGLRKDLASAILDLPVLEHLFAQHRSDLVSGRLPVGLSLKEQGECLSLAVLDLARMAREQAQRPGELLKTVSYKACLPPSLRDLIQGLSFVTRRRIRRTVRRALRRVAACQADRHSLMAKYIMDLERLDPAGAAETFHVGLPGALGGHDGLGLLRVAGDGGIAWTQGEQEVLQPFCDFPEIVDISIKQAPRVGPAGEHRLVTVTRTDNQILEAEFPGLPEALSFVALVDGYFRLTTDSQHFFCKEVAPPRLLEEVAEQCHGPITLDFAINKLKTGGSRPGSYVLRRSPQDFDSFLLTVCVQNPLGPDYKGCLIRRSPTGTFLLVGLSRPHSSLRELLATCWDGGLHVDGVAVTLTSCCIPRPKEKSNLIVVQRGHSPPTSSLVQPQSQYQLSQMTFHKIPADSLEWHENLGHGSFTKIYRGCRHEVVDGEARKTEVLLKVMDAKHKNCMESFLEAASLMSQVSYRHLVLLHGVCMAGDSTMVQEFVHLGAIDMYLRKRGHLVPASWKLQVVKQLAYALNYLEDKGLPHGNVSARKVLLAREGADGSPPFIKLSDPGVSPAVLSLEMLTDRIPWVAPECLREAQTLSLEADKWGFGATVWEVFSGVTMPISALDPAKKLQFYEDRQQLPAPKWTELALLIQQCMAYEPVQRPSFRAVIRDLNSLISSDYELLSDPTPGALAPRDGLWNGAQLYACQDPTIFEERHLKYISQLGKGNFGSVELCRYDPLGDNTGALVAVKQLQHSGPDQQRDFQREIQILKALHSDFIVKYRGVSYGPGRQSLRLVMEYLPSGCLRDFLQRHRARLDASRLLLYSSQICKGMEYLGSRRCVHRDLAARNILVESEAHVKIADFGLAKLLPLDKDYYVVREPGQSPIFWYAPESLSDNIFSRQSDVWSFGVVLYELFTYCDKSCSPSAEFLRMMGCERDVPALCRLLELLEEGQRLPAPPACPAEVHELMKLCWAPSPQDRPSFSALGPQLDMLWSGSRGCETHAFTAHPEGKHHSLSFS
# Method: as §2, §3, §4, §5
# [2] = Lung and plasma drug concentration in the murine IL-13 pSTAT6 model; type: in vivo; conditions: mouse, other: oral aspiration, 50 µg/mouse; for concentration at 5 h: Balb/c mice, 1 mg/mL, 50 μL oral aspiration, 5 hr post dose
# Method: as §1
# Adult Balb/c mice from Harlan were used in the assay. […] Animals were placed in lateral recumbency post dose and monitored for full recovery from anesthesia before being returned to their home cage. Four hours later, animals were once again briefly anesthetized and challenged with either vehicle or IL-13 (0.03 μg total dose delivered, 50 μL total volume) via oral aspiration before being monitored for recovery from anesthesia and returned to their home cage. One hour after vehicle or IL-13 administration, whole blood and lungs were collected for both pSTAT6 detection in lung homogenates using a Perkin Elmer AlphaLISA® SureFire® Ultra™ HV p-STAT6 (Tyr641) assay kit and for total drug concentration analysis in both lung and plasma. Blood samples were centrifuged (Eppendorf centrifuge, 5804R) for 4 minutes at approximately 12,000 rpm at 4° C. to collect plasma. […] Plasma and lung levels of test compound were determined by LC-MS analysis against analytical standards constructed into a standard curve in the test matrix. A lung to plasma ratio was determined as the ratio of the lung concentration in ng/g to the plasma concentration in ng/mL at 5 hours.
compound,measurement,setting,value
"CCCN1Cc2[nH]c(-c3n[nH]c4cc(-c5ccc(O)cc5CC)ccc34)nc2C[C@H]1C(=O)N1C[C@@H]2C[C@H]1CN2C [Compound 2, ((S)-2-(6-(2-ethyl-4-hydroxyphenyl)-1H-indazol-3-yl)-5-propyl-4,5,6,7-tetrahydro-3H-imidazo[4,5-c]pyridin-6-yl)((1S,4S)-5-methyl-2,5-diazabicyclo[2.2.1]heptan-2-yl)methanone]",pSTAT6 inhibition at 5 hours,[1],72%
same,JAK2 pKi,JAK2,10.2
same,Compound Remaining at 60 min (%),"Lung S9 metabolism; human lung S9, 1 μM compound, 1 mg/mL S9 protein, NADPH and PAPS",81%
same,microsomal CLint at 1 µM,"Lung S9 metabolism; lung S9 fraction, pH 7.4, human lung S9, 1 μM compound, 1 mg/mL S9 protein, NADPH and PAPS, read-out: Clearance",3.5 µL/min/mg
same,Sulfate Appearance,"Lung S9 metabolism; qualitative, O-sulfate metabolite peak in human lung S9",Yes
same,JAK3 PKi,JAK3,9.8
same,Kp at 5 h,"[2]; Balb/c, lung ng/g to plasma ng/mL at 5 hours, mice, oral aspiration, read-out: Lung to Plasma ratio at 5 hr",1340
same,concentration at 5 h,"[2]; lung, read-out: Lung Concentration (ng/g) at 5 hr",23400 ± 12500 ng/g
same,concentration at 5 h,"[2]; plasma, read-out: Plasma Concentration (ng/mL) at 5 hr",17.5 ± 25 ng/mL
